Laboratory results taken from patent US7993931B1, “Oxygen-18 labeled organic acids and use in diagnosing metabolic disorders” (Quest Diagnostics Investments Incorporated, priority 2003, dated 2011).

Experiment: Stability of oxygen-18 labeled organic acids in the sample preparation procedure (L/L extraction, MTBSTFA derivatization, GC/MS)
Settings: for stability of the labeled acid (in words): prior to L/L extraction, during an 80 minute and during a 120 minute L/L extraction
[1] = Before L/L extraction, in diluted normal human urine, pH 1, ethyl-acetate extraction, GC/MS [M-57]+

CCC(O)C(=O)O (stereo not drawn) [oxygen-18-containing 2-OH Butyric Acid, 2-hydroxy-butyric acid]
Single labeled (Before L/L extraction): 15%
Unlabeled (Before L/L extraction): 1%
Double labeled [1]: 84%
Double labeled (L/L 80 min. extraction): 83%
Single labeled (L/L 80 min. extraction): 17.4%
Unlabeled (L/L 80 min. extraction): 0.11%
Double labeled (L/L 120 min. extraction): 80%
Single labeled (L/L 120 min. extraction): 19.7%
Unlabeled (L/L 120 min. extraction): 0.3%
stability of the labeled acid (in words): exhibited stability

CC(C)CC(O)C(=O)O (stereo not drawn) [2-hydroxy isocaproic acid]
Single labeled (Before L/L extraction): 15.6%
Unlabeled (Before L/L extraction): 0.4%
Double labeled [1]: 84%
Double labeled (L/L 80 min. extraction): 83%
Single labeled (L/L 80 min. extraction): 16.5%
Unlabeled (L/L 80 min. extraction): 0.5%
Double labeled (L/L 120 min. extraction): 79%
Single labeled (L/L 120 min. extraction): 20.6%
Unlabeled (L/L 120 min. extraction): 0.4%
stability of the labeled acid (in words): exhibited stability

CC(=O)CC(=O)CCC(=O)O [Oxygen-18-Containing Succinyacetone, Succinyacetone]
Oxygen 18 × 1 (Before L/L extraction): 0.2%
Oxygen 18 × 2 (Before L/L extraction): 2.8%
Oxygen 18 × 3 (Before L/L extraction): 25%
Oxygen 18 × 4 (Before L/L extraction): 72%
Unlabeled (Before L/L extraction): 0%
Oxygen 18 × 1 (L/L 80 min. extraction): 0.2%
Oxygen 18 × 2 (L/L 80 min. extraction): 2.8%
Oxygen 18 × 3 (L/L 80 min. extraction): 27%
Oxygen 18 × 4 (L/L 80 min. extraction): 70%
Unlabeled (L/L 80 min. extraction): 0%
Oxygen 18 × 1 (L/L 120 min. extraction): 0.8%
Oxygen 18 × 2 (L/L 120 min. extraction): 3%
Oxygen 18 × 3 (L/L 120 min. extraction): 29%
Oxygen 18 × 4 (L/L 120 min. extraction): 67%
Unlabeled (L/L 120 min. extraction): 0.2%
stability of the labeled acid (in words): exhibited stability

CC=CC(=O)NCC(=O)O [Oxygen-18-Containing Crotonyl Glycine, Crotonyl glycine]
Single labeled (Before L/L extraction): 15.5%
Unlabeled (Before L/L extraction): 0.1%
Double labeled [1]: 84%
Double labeled (L/L 80 min. extraction): 85%
Single labeled (L/L 80 min. extraction): 14.8%
Unlabeled (L/L 80 min. extraction): 0.2%
Double labeled (L/L 120 min. extraction): 81%
Single labeled (L/L 120 min. extraction): 17.4%
Unlabeled (L/L 120 min. extraction): 1.6%
stability of the labeled acid (in words): exhibited stability

O=C(O)CCCC(=O)O [Oxygen-18-Containing Glutaric Acid, Glutaric acid]
Oxygen 18 × 1 (Before L/L extraction): 0.4%
Oxygen 18 × 2 (Before L/L extraction): 3.5%
Oxygen 18 × 3 (Before L/L extraction): 27%
Oxygen 18 × 4 (Before L/L extraction): 69%
Unlabeled (Before L/L extraction): 0.1%
Oxygen 18 × 1 (L/L 80 min. extraction): 0.8%
Oxygen 18 × 2 (L/L 80 min. extraction): 3%
Oxygen 18 × 3 (L/L 80 min. extraction): 28%
Oxygen 18 × 4 (L/L 80 min. extraction): 68%
Unlabeled (L/L 80 min. extraction): 0.2%
Oxygen 18 × 1 (L/L 120 min. extraction): 0.8%
Oxygen 18 × 2 (L/L 120 min. extraction): 4%
Oxygen 18 × 3 (L/L 120 min. extraction): 30%
Oxygen 18 × 4 (L/L 120 min. extraction): 65%
Unlabeled (L/L 120 min. extraction): 0.2%
stability of the labeled acid (in words): exhibited stability

CC(O)C(C)C(=O)O (stereo not drawn) [3-hydroxy-2-methyl butyric acid]
Single labeled (Before L/L extraction): 14.9%
Unlabeled (Before L/L extraction): 0.1%
Double labeled [1]: 85%
Double labeled (L/L 80 min. extraction): 85%
Single labeled (L/L 80 min. extraction): 14.9%
Unlabeled (L/L 80 min. extraction): 0.1%
Double labeled (L/L 120 min. extraction): 85%
Single labeled (L/L 120 min. extraction): 14.7%
Unlabeled (L/L 120 min. extraction): 0.3%
stability of the labeled acid (in words): exhibited stability

O=C(O)C(O)CO (stereo not drawn) [Oxygen-18-Containing Glyceric Acid, Glyceric acid]
Single labeled (Before L/L extraction): 13%
Unlabeled (Before L/L extraction): 0%
Double labeled [1]: 87%
Double labeled (L/L 80 min. extraction): 84%
Single labeled (L/L 80 min. extraction): 15.5%
Unlabeled (L/L 80 min. extraction): 0.5%
Double labeled (L/L 120 min. extraction): 81%
Single labeled (L/L 120 min. extraction): 17.6%
Unlabeled (L/L 120 min. extraction): 2.4%
stability of the labeled acid (in words): exhibited stability

CCCC(=O)NCC(=O)O [Oxygen-18-Containing Butyryl Glycine, Butyryl glycine]
Single labeled (Before L/L extraction): 14.5%
Unlabeled (Before L/L extraction): 0.5%
Double labeled [1]: 85%
Double labeled (L/L 80 min. extraction): 85%
Single labeled (L/L 80 min. extraction): 14.8%
Unlabeled (L/L 80 min. extraction): 0.2%
Double labeled (L/L 120 min. extraction): 83%
Single labeled (L/L 120 min. extraction): 16.2%
Unlabeled (L/L 120 min. extraction): 0.8%
stability of the labeled acid (in words): exhibited stability

O=C(O)Cc1ccc(O)cc1 [4-hydroxy phenyl acetic acid]
Single labeled (Before L/L extraction): 15.5%
Unlabeled (Before L/L extraction): 0.8%
Double labeled [1]: 83.7%
Double labeled (L/L 80 min. extraction): 81%
Single labeled (L/L 80 min. extraction): 15.8%
Unlabeled (L/L 80 min. extraction): 3.2%
Double labeled (L/L 120 min. extraction): 78%
Single labeled (L/L 120 min. extraction): 19.7%
Unlabeled (L/L 120 min. extraction): 2.3%
stability of the labeled acid (in words): exhibited stability
